Format in all cases: cell-based
Assay [1] deals with Staph. aureus ATCC 6538P. In words: Antibacterial activity (MIC), Staph. aureus ATCC 6538P. The note with it: Staphylococcus aureus, ATCC6538P, read-out: MIC (minimum effective inhibitory concentration). The source says:
(§1) Antibacterial activities (minimum effective inhibitory concentrations) of the compounds of formula I are shown in the following table in comparison with those of cefatazidime having the structure [drawing 5] and cefmenoxime having the structure [drawing 6]

In assay [2] the test system is Serr. marcescens IID 620. In words: Antibacterial activity (MIC), Serr. marcescens IID 620. The settings on record: Serratia marcescens, IID620; Serr. marcescens IID 620; read-out: MIC (minimum effective inhibitory concentration).
Excerpt: as §1

The test system of assay [3] is Ent. cloacae V-8. Kind of assay: Antibacterial activity (MIC), Ent. cloacae V-8. The settings on record: Enterobacter cloacae, V8, read-out: MIC (minimum effective inhibitory concentration).
Excerpt: as §1

Assay [4] relates to E. coli Ebara. In words: Antibacterial activity (MIC), E. coli Ebara. The note with it: Escherichia coli; E. coli Ebara; read-out: MIC (minimum effective inhibitory concentration).
Excerpt: as §1

Assay [5] concerns Ps. aeruginosa NCTC 10490. In words: Antibacterial activity (MIC), Ps. aeruginosa NCTC 10490. The note with it: Pseudomonas aeruginosa, NCTC10490, read-out: MIC (minimum effective inhibitory concentration).
Excerpt: as §1

The test system of assay [6] is Staph. aureus Terashima. In words: Antibacterial activity (MIC), Staph. aureus Terashima. The settings on record: Staphylococcus aureus, read-out: MIC (minimum effective inhibitory concentration).
Excerpt: as §1

In assay [7] the test system is Proteus morgani IID 602. Kind of assay: Antibacterial activity (MIC), Proteus morgani IID 602. The settings on record: Proteus morgani IID 602; read-out: MIC (minimum effective inhibitory concentration).
Excerpt: as §1

For assay [8], the system named is Ent. aerogenes ATCC 13048 (MS-1). In words: Antibacterial activity (MIC), Ent. aerogenes ATCC 13048 (MS-1). The settings on record: Klebsiella aerogenes, ATCC13048, read-out: MIC (minimum effective inhibitory concentration).
Excerpt: as §1

Assay [9] has as its system Kleb. pneumoniae ATCC 10031. Kind of assay: Antibacterial activity (MIC), Kleb. pneumoniae ATCC 10031. The settings on record: Klebsiella pneumoniae, ATCC10031, read-out: MIC (minimum effective inhibitory concentration).
Excerpt: as §1

The subject of assay [10] is Staph. aureus Smith. In words: Antibacterial activity (MIC), Staph. aureus Smith. The settings on record: Staphylococcus aureus, read-out: MIC (minimum effective inhibitory concentration).
Excerpt: as §1

Assay [11] relates to Ps. aeruginosa IID 5142. Kind of assay: Antibacterial activity (MIC), Ps. aeruginosa IID 5142. The note with it: Pseudomonas aeruginosa, IID5142, read-out: MIC (minimum effective inhibitory concentration).
Excerpt: as §1

The values below come from patent publication US4608373A, “Cephem compounds” (Yamanouchi Pharmaceutical Co., Ltd., priority 1982, dated 1986).

The structures appear in SMILES notation. ≈ marks a conversion by molar mass, not a printed value. Structures can show the parent of a compound that is named as a salt. A value given as a limit tells only on which side of the number the result lay.

In the case of `Nc1ccc[n+](CC2=C(C(=O)[O-])N3C(=O)C(NC(=O)/C(=N\OCc4csc(N)n4)c4csc(N)n4)[C@H]3SC2)c1` (stereo partly drawn) [Example 19, (Z)-7-{α-(2-amino-4-thiazolyl)-α-[(2-amino-4-thiazolyl)methoxyimino]acetamido}-3-(3-amino-1-pyridiniomethyl)-3-cephem-4-carboxylate], the MIC in [1] was 0.78 µg/mL (≈ 1.33 µM); in assay [2], at most 0.2 µg/mL; in assay [3], 3.13 µg/mL (≈ 5.33 µM); in assay [4], 0.39 µg/mL (≈ 0.664 µM); in assay [5] it was 0.78 µg/mL (≈ 1.33 µM); in assay [6], 0.78 µg/mL (≈ 1.33 µM). Further, the MIC in assay [7] was 0.78 µg/mL (≈ 1.33 µM); in assay [8], 1.56 µg/mL (≈ 2.65 µM); in assay [9], at most 0.2 µg/mL; in [10], 0.78 µg/mL (≈ 1.33 µM); in [11], 6.25 µg/mL (≈ 10.6 µM).

On to `Nc1nc(CO/N=C(\C(=O)NC2C(=O)N3C(C(=O)[O-])=C(C[n+]4cccc(C(=O)NCC(=O)O)c4)CSC23)c2csc(N)n2)cs1` (stereo not drawn) [Example 20, (Z)-7-{α-(2-amino-4-thiazolyl)-α-[(2-amino-4-thiazolyl)methoxyimino]acetamido}-3-{3-[N-(carboxylatemethyl)carbamoyl]-1-pyridiniomethyl}-3-cephem-4-carboxylate mono-sodium salt], for which the MIC was 6.25 µg/mL in assay [1]; at most 0.2 µg/mL in assay [2]; 12.5 µg/mL in [3]; 6.25 µg/mL in [4]; 1.56 µg/mL in [5]; 12.5 µg/mL in assay [6]. In addition, the MIC in assay [7] is 1.56 µg/mL; in [8], 3.13 µg/mL; in assay [9], 0.39 µg/mL; in [10], 6.25 µg/mL; in assay [11] it was 25 µg/mL.

Take `Nc1cc[n+](CC2=C(C(=O)[O-])N3C(=O)C(NC(=O)/C(=N\OCc4csc(N)n4)c4csc(N)n4)[C@H]3SC2)cc1` (stereo partly drawn) [Example 21, 7-{α-(2-amino-4-thiazolyl)-α-[(2-amino-4-thiazolyl)methoxyimino]acetamido}-3-(4-amino-1-pyridiniomethyl)-3-cephem-4-carboxylate]: the MIC in [1] is 0.39 µg/mL (≈ 0.664 µM); in assay [2] it was at most 0.2 µg/mL; in [3] it was 1.56 µg/mL (≈ 2.65 µM); in [4], at most 0.2 µg/mL; in assay [5], 0.39 µg/mL (≈ 0.664 µM); in assay [6], 0.39 µg/mL (≈ 0.664 µM). Moreover, the MIC in [7] is 0.39 µg/mL (≈ 0.664 µM); in [8], 0.78 µg/mL (≈ 1.33 µM); in assay [9], at most 0.2 µg/mL; in assay [10], 0.39 µg/mL (≈ 0.664 µM); in assay [11] it was 6.25 µg/mL (≈ 10.6 µM).

With `Nc1nc(CO/N=C(\C(=O)NC2C(=O)N3C(C(=O)[O-])=C(C[n+]4cccc(CNC=O)c4)CS[C@H]23)c2csc(N)n2)cs1` (stereo partly drawn) [Example 22, (Z)-7-{α-(2-amino-4-thiazolyl)-α-[(2-amino-4-thiazolyl)methoxyimino]acetamido}-3-(3-formamidomethyl-1-pyridiniomethyl)-3-cephem-4-carboxylate], the MIC was found to be 1.56 µg/mL (≈ 2.48 µM) in assay [1]; 0.78 µg/mL (≈ 1.24 µM) in assay [2]; 6.25 µg/mL (≈ 9.93 µM) in assay [3]; 1.56 µg/mL (≈ 2.48 µM) in assay [4]; 1.56 µg/mL (≈ 2.48 µM) in [5]; 3.13 µg/mL (≈ 4.97 µM) in assay [6]. Further, the MIC was 1.56 µg/mL (≈ 2.48 µM) in assay [7]; 3.13 µg/mL (≈ 4.97 µM) in [8]; at most 0.2 µg/mL in assay [9]; 1.56 µg/mL (≈ 2.48 µM) in [10]; 12.5 µg/mL (≈ 19.9 µM) in assay [11].

`Nc1nc(CON=C(C(=O)NC2C(=O)N3C(C(=O)[O-])=C(C[n+]4ccc(C(=O)NO)cc4)CS[C@H]23)c2csc(N)n2)cs1` (stereo partly drawn) [Example 23, (Z)-7-{α-(2-amino-4-thiazolyl)-α-[(2-amino-4-thiazolyl)methoxyimino]acetamido}-3-(4-hydroxycarbamoyl-1-pyridiniomethyl)-3-cephem-4-carboxylate]: the MIC turned out to be 3.13 µg/mL (≈ 4.96 µM) in [1]; 0.39 µg/mL (≈ 0.617 µM) in assay [2]; 3.13 µg/mL (≈ 4.96 µM) in assay [3]; 0.39 µg/mL (≈ 0.617 µM) in [4]; 0.39 µg/mL (≈ 0.617 µM) in assay [5]; 3.13 µg/mL (≈ 4.96 µM) in assay [6]. Moreover, the MIC was 0.78 µg/mL (≈ 1.23 µM) in assay [7]; 1.56 µg/mL (≈ 2.47 µM) in [8]; at most 0.2 µg/mL in [9]; 6.25 µg/mL (≈ 9.89 µM) in assay [10]; 6.25 µg/mL (≈ 9.89 µM) in assay [11].
